In patent US12351559B2 (Biohaven Therapeutics Ltd., priority 2014, dated 2025):

Molecular target: T1, Kv7.2/7.3 (Homo sapiens, UniProt O43525+O43526)
T1 construct: host or cells: HEK cells, tetracycline-inducible expression
Assay: Kv7.2/7.3 activation assay, QPatch planar patch-clamp, single concentration screen
Format: cell-based
Design: key: <1.2-fold increase over baseline (−); +/−: as a range from <1.2-fold increase over baseline (−) up to >6-fold increase over baseline (+++); as a range from <1.2-fold increase over baseline (−) up to >6-fold increase over baseline (+++); as a range from <1.2-fold increase over baseline (−) up to >6-fold increase over baseline (+++); >6-fold increase over baseline (+++)
Settings: Kv7.2/Kv7.3 co-expressing HEK cells, compound 3 μM, steady-state current at end of 2 s pulse to −30 mV
Protocol: The ability of compounds to potentiate K-currents in Kv7.2/7.3 containing HEK cells was assessed using planar patch-clamp on the QPatch automated screening platform.
Cell Line: The hKv7.2/7.3 cell line was obtained from Chantest (Cleveland, OH 44128) cat. #CT6147. These HEK cells will express the Kv7.2/7.3 ion channels when induced.
Cell Culture: Cells were maintained in a media containing DMEM/F12; 50/50 (GIBCO cat. #11330), 10% Fetal Bovine Serum (FBS) (GIBCO cat. #26140), 100 units/mL Penicillin-Streptomycin (GIBCO cat. #15140), 0.005 mg/mL Blasticidin (INVIVOGEN cat. #ant-bl-1), 0.5 mg/mL Geneticin (GIBCO cat. #10131), 0.1 mg/ml Zeocin (GIBCO cat. #R25001). Cells used in the electrophysiology assay were maintained in a media without Blasticidin, Geneticin and Zeocin for 2 days and channel expression was induced by adding tetracycline (BIOLINE cat. #BIO-87030) at a final concentration of 1 mg/mL. Cells were grown in T-175 flask to ˜75% confluency. Currents were recorded 24 hours after channel induction.
Compound Plates: Test compounds were prepared by performing serial dilutions on a Biomek NX^P (BECKMAN COULTER). Final dilutions were made in external recording solution with a final DMSO concentration of 0.1% DMSO. For single concentration screens each plate had 10 μM retigabine as a positive control and 0.1% DMSO as a negative control.
Electrophysiology: On the day of the experiment cells were washed with Hank's Balanced Salt Solution (HBBS) (GIBCO cat. #14175) and harvested with Tryple (GIBCO cat. #12604). Cells were then centrifuged at 2000 rpm for 5 minutes and resuspended in CHO-S-SFM (GIBCO cat. #12052) at ˜3×10^6 cells/mL. Cells were stirred for 30 minutes before experiments were started. External recording solution contained (in mM): NaCl (145), KCl (4), CaCl2 (2), MgCl2 (1), HEPES (10) and Glucose (10); pH was adjusted to 7.4 with NaOH and the osmolarity was adjusted to 300-305 mOsM with sucrose if necessary. Internal solution contained (in mM): KCl (125), KF (10), EGTA (5), Na2ATP (5), MgCl2 (3.2), HEPES (5); pH was adjusted to 7.2 with KOH and the osmolarity was adjusted to 298-302 mOsM with sucrose.
Potassium channel activity was measured on the QPatch HTX (Sophion Bioscience) using QPlates with 48-wells/plate. Each cell was taken as an independent experiment and only one compound was tested per well. Potassium channel activity was elicited by holding at −80 mV and stepping to −30 mV for 2 s followed by a 100 ms pulse to −120 mV.
Single concentration screen: Baseline conditions were obtained by recording 5 sweeps in the external solution only, this was repeated for three applications of the external solution. […] The steady-state current at the end of the 2 s pulse to −30 mV was measured to determine the fold increase from baseline.

SMILES | Kv7.2/7.3 Activity: increase in current over baseline
CC(O)c1ccc2nc(NC(=O)[C@@H](C)C(C)C)n(C3CCC3)c2c1 (stereo partly drawn) [Example 56, (2S)-N-(1-cyclobutyl-6-(1-hydroxyethyl)-1H-benzo[d]imidazol-2-yl)-2,3-dimethylbutanamide] | ++
CCC(O)c1ccc2nc(NC(=O)CC(C)(C)C)n(C3CCC3)c2c1 (stereo not shown) [Example 57] | +
CC1(C)C[C@@H]1C(=O)Nc1nc2ccc(Cl)cc2n1C1CCC1 [Example 58, (S)-N-(6-chloro-1-cyclobutyl-1H-benzo[d]imidazol-2-yl)-2,2-dimethylcyclopropane-1-carboxamide] | +
CC(C)[C@H](C)C(=O)Nc1nc2ccc(Cl)cc2n1C1CCC1 [Example 59, (S)-N-(6-chloro-1-cyclobutyl-1H-benzo[d]imidazol-2-yl)-2,3-dimethylbutanamide] | +
CC(C)(C)CC(=O)Nc1nc2ccc(Cl)cc2n1C1CCC1 [Example 60, N-(6-chloro-1-cyclobutyl-1H-benzo[d]imidazol-2-yl)-3,3-dimethylbutanamide] | +
O=C(CC1(O)CCC1)Nc1nc2ccc(Cl)cc2n1C1CCC1 [Example 62, N-(6-chloro-1-cyclobutyl-1H-benzo[d]imidazol-2-yl)-2-(1-hydroxycyclobutyl)acetamide] | +
CC(C)(C)CC(=O)Nc1nc2ccc(Br)cc2n1C1CCC1 [Example 63, N-(6-bromo-1-cyclobutyl-1H-benzo[d]imidazol-2-yl)-3,3-dimethylbutanamide] | ++
CC(C)c1ccc2nc(NC(=O)CC(C)(C)C)n(C3CCC3)c2c1 [Example 64, N-(1-cyclobutyl-6-isopropyl-1H-benzo[d]imidazol-2-yl)-3,3-dimethylbutanamide] | ++
CC(C)c1ccc2nc(NC(=O)[C@@H](C)C(C)C)n(C3CCC3)c2c1 [Example 65, (S)—N-(1-cyclobutyl-6-isopropyl-1H-benzo[d]imidazol-2-yl)-2,3-dimethylbutanamide] | +
CC(C)(C)CC(=O)Nc1nc2ccc(C(F)F)cc2n1C1CCC1 [Example 66, N-(1-cyclobutyl-6-(difluoromethyl)-1H-benzo[d]imidazol-2-yl)-3,3-dimethylbutanamide] | ++
COC(=O)c1cccc2nc(NC(=O)CC(C)(C)C)n(C3CCC3)c12 [Example 67, methyl 1-cyclobutyl-2-(3,3-dimethylbutanamido)-1H-benzo[d]imidazole-7-carboxylate] | +/−
CC(C)(C)CC(=O)Nc1nc2cccc(CO)c2n1C1CCC1 [Example 68, N-(1-cyclobutyl-7-(hydroxymethyl)-1H-benzo[d]imidazol-2-yl)-3,3-dimethylbutanamide] | +
Cc1cc(-n2c(NC(=O)CC(C)(C)C)nc3ccc(C#N)cc32)on1 [Example 69, N-(6-cyano-1-(3-methylisoxazol-5-yl)-1H-benzo[d]imidazol-2-yl)-3,3-dimethylbutanamide] | +
C[C@@](O)(CC(=O)Nc1nc2ccc(C#N)cc2n1-c1ccc(F)cc1)c1ccccc1 [Example 70, (R)-N-(6-cyano-1-(4-fluorophenyl)-1H-benzo[d]imidazol-2-yl)-3-hydroxy-3-phenylbutanamide] | +/−
C[C@H](C(=O)Nc1nc2ccc(C#N)cc2n1-c1ccc(F)cc1)C(C)(C)C [Example 71, (S)-N-(6-cyano-1-(4-fluorophenyl)-1H-benzo[d]imidazol-2-yl)-2,3,3-trimethylbutanamide] | +
CC(C)(C(=O)Nc1nc2ccc(C#N)cc2n1C1CCC1)C(O)c1ccccc1 (stereo not shown) [Example 72, N-(6-cyano-1-cyclobutyl-1H-benzo[d]imidazol-2-yl)-3-hydroxy-2,2-dimethyl-3-phenylpropanamide] | +/−
CC(C)[C@H](C)C(=O)Nc1nc2ccc(C#N)cc2n1-c1ccc(F)cn1 [Example 73, (S)-N-(6-cyano-1-(5-fluoropyridin-2-yl)-1H-benzo[d]imidazol-2-yl)-2,3-dimethylbutanamide] | +/−
CC(C)(C)CC(=O)Nc1nc2ccc(C#N)cc2n1-c1ccc(F)cn1 [Example 74, N-(6-cyano-1-(5-fluoropyridin-2-yl)-1H-benzo[d]imidazol-2-yl)-3,3-dimethylbutanamide] | +
C[C@H](C(=O)Nc1nc2ccc(C#N)cc2n1-c1ccc(F)cn1)C(C)(C)C [Example 75, (S)-N-(6-cyano-1-(5-fluoropyridin-2-yl)-1H-benzo[d]imidazol-2-yl)-2,3,3-trimethylbutanamide] | ++
C[C@@H](C(=O)Nc1nc2ccc(C#N)cc2n1C1CCC1)C(C)(C)C [Example 76, (R)-N-(6-cyano-1-cyclobutyl-1H-benzo[d]imidazol-2-yl)-2,3,3-trimethylbutanamide] | +
CC(C(=O)Nc1nc2ccc(C#N)cc2n1C1CCC1)C(C)(C)C (stereo not shown) [Example 77, N-(6-cyano-1-cyclobutyl-1H-benzo[d]imidazol-2-yl)-2,3,3-trimethylbutanamide] | +
CC(O)(CC(=O)Nc1nc2ccc(C#N)cc2n1C1CCC1)C1CCC1 (stereo not shown) [Example 78, N-(6-cyano-1-cyclobutyl-1H-benzo[d]imidazol-2-yl)-3-cyclobutyl-3-hydroxybutanamide] | +
C[C@](O)(CC(=O)Nc1nc2ccc(C#N)cc2n1-c1ccc(F)cn1)c1ccccc1 [Example 79, (S)-N-(6-cyano-1-(5-fluoropyridin-2-yl)-1H-benzo[d]imidazol-2-yl)-3-hydroxy-3-phenylbutanamide] | +
CC(O)(CC(=O)Nc1nc2ccc(C#N)cc2n1C1CCC1)C1CCCC1 (stereo not shown) [Example 80, N-(6-cyano-1-cyclobutyl-1H-benzo[d]imidazol-2-yl)-3-cyclopentyl-3-hydroxybutanamide] | +
N#Cc1ccc2nc(NC(=O)CC3(O)CCCC3)n(C3CCC3)c2c1 [Example 81, N-(6-cyano-1-cyclobutyl-1H-benzo[d]imidazol-2-yl)-2-(1-hydroxycyclopentyl)acetamide] | +
CC(C)(C)CC(=O)Nc1nc2cccc(C(C)(C)O)c2n1C1CCC1 [Example 82, N-(1-cyclobutyl-7-(2-hydroxypropan-2-yl)-1H-benzo[d]imidazol-2-yl)-3,3-dimethylbutanamide] | +/−
CC1(C)CCC[C@@H](CC(=O)Nc2nc3ccc(C(C)(C)O)cc3n2C2CCC2)O1 [Example 83, (S)-N-(1-cyclobutyl-6-(2-hydroxypropan-2-yl)-1H-benzo[d]imidazol-2-yl)-2-(6,6-dimethyltetrahydro-2H-pyran-2-yl)acetamide] | ++
CC(C)(O)c1ccc2nc(NC(=O)C[C@](C)(O)c3ccccc3)n(C3CCC3)c2c1 [Example 84, (S)-N-(1-cyclobutyl-6-(2-hydroxypropan-2-yl)-1H-benzo[d]imidazol-2-yl)-3-hydroxy-3-phenylbutanamide] | +
